ChEMBL document CHEMBL1148751, “Optimization of the indenone ring of indenoisoquinoline topoisomerase I inhibitors” (2007)

Assays:
Type in all cases: functional
HOP-62 = test: Cytotoxicity against human HOP62 cells
UACC-62 = test: Cytotoxicity against human UACC62 cells
HCT-116 = test: Cytotoxicity against human HCT116 cells
SF-539 = test: Cytotoxicity against human SF539 cells
OVCAR-3 = test: Cytotoxicity against human OVCAR-3 cells
DU-145 = test: Cytotoxicity against human DU145 cells
MDA-MB-435 = test: Cytotoxicity against human MDA-MB-435 cells
SN12C = test: Cytotoxicity against human SN12C cells

| SMILES | GI50 (HOP-62) [µM] | GI50 (UACC-62) [µM] | GI50 (HCT-116) [µM] | GI50 (SF-539) [µM] | GI50 (OVCAR-3) [µM] | GI50 (DU-145) [µM] | GI50 (MDA-MB-435) [µM] | GI50 (SN12C) [µM] |
| --- | --- | --- | --- | --- | --- | --- | --- | --- |
| O=C1c2ccccc2-c2c1c1ccc([N+](=O)[O-])cc1c(=O)n2CCCCl | 43.6 | – | – | – | – | – | – | – |
| [N-]=[N+]=NCCCn1c2c(c3ccc([N+](=O)[O-])cc3c1=O)C(=O)c1ccccc1-2 | – | 29.5 | – | – | – | – | – | – |
| COc1ccc2c(c1)C(=O)c1c-2n(CCCN=[N+]=[N-])c(=O)c2cc([N+](=O)[O-])ccc12 | < 0.001 | – | < 0.001 | < 0.001 | 0.155 | < 0.001 | 0.251 | – |
| COc1cc2c3c(n(CCCN=[N+]=[N-])c(=O)c2cc1OC)-c1ccc(N)cc1C3=O | 0.051 | 0.026 | 0.047 | 0.05 | 0.214 | 0.059 | 0.214 | 0.148 |
| COc1cc2c3c(n(CCCN=[N+]=[N-])c(=O)c2cc1OC)-c1ccc(N(C)C)cc1C3=O | > 100 | > 100 | – | > 100 | > 100 | > 100 | > 100 | > 100 |
| CCc1ccc2c(c1)C(=O)c1c-2n(CCCN=[N+]=[N-])c(=O)c2cc(OC)c(OC)cc12 | 56.2 | 91.2 | – | 57.5 | > 100 | > 100 | > 100 | > 100 |
| COc1cc2c3c(n(CCCN=[N+]=[N-])c(=O)c2cc1OC)-c1ccccc1C3=O | 3.55 | 2.63 | 1.82 | 4.68 | 4.57 | 28.2 | 9.77 | 13.8 |
| COc1cc2c3c(n(CCCN=[N+]=[N-])c(=O)c2cc1OC)-c1ccc(F)cc1C3=O | 4.17 | 5.25 | 4.17 | 3.24 | 6.17 | 4.17 | 38 | 8.32 |
| COc1cc2c3c(n(CCCN=[N+]=[N-])c(=O)c2cc1OC)-c1ccc(C#N)cc1C3=O | 14.1 | 12.3 | 24 | 17.4 | 17 | 33.9 | > 100 | 15.5 |
| COc1cc2c3c(n(CCCN=[N+]=[N-])c(=O)c2cc1OC)-c1ccc([N+](=O)[O-])cc1C3=O | 89.1 | 69.2 | > 100 | 38.9 | > 100 | 34.7 | > 100 | > 100 |
| COc1cc2c3c(n(CCCN)c(=O)c2cc1OC)-c1ccc(N)cc1C3=O | – | 1.38 | 0.263 | 0.316 | 1.82 | 2.4 | 4.17 | 2.57 |
| COc1cc2c3c(n(CCCN)c(=O)c2cc1OC)-c1ccc(N(C)C)cc1C3=O | 17 | 21.9 | 3.63 | 1.9 | 17.8 | 2.4 | 17.8 | 17 |
| COc1cc2c3c(n(CCCCl)c(=O)c2cc1OC)-c1ccccc1C3=O | 4.47 | 12.3 | 2.46 | 14.1 | 10.7 | > 100 | > 100 | > 100 |
| COC(=O)c1ccc2c(c1)C(=O)c1c-2n(CCCCl)c(=O)c2cc(OC)c(OC)cc12 | > 100 | > 100 | > 100 | – | > 100 | > 100 | > 100 | > 100 |
| COc1cc2c3c(n(CCCCl)c(=O)c2cc1OC)-c1ccc(C#N)cc1C3=O | 14.8 | 6.76 | 15.1 | 7.24 | 12.9 | 10.7 | > 100 | 22.9 |
| COc1cc2c3c(n(CCCBr)c(=O)c2cc1OC)-c1ccc(NC(C)=O)cc1C3=O | 1.29 | 2.09 | 2.57 | 3.8 | 4.36 | 4.68 | 13.8 | 13.8 |
| Cc1ccc2c(c1)C(=O)c1c-2n(CCCN)c(=O)c2cc([N+](=O)[O-])ccc12 | 0.191 | – | 0.229 | 0.603 | 0.324 | 0.115 | 0.316 | 0.229 |
| NCCCn1c2c(c3ccc([N+](=O)[O-])cc3c1=O)C(=O)c1cc(-c3ccccc3)ccc1-2 | 0.186 | 1.51 | 0.178 | 1.62 | 1.82 | 0.2 | 0.468 | 0.437 |
| COc1ccc2c(c1)C(=O)c1c-2n(CCCCl)c(=O)c2cc(OC)c(OC)cc12 | 4.07 | 3.02 | 8.32 | 6.76 | 70.8 | 4.07 | 37.2 | 5.5 |
| NCCCn1c2c(c3ccc([N+](=O)[O-])cc3c1=O)C(=O)c1ccccc1-2 | – | – | < 0.005 | – | – | 0.014 | – | 0.009 |

| SMILES | GI50 (HOP-62) [µM] | GI50 (UACC-62) [µM] | GI50 (HCT-116) [µM] | GI50 (SF-539) [µM] | GI50 (OVCAR-3) [µM] | GI50 (DU-145) [µM] | GI50 (MDA-MB-435) [µM] | GI50 (SN12C) [µM] |
| --- | --- | --- | --- | --- | --- | --- | --- | --- |
| NCCCn1c2c(c3ccc([N+](=O)[O-])cc3c1=O)C(=O)c1cc(I)ccc1-2 | 0.021 | < 0.01 | < 0.01 | 0.044 | 1.2 | < 0.01 | 0.224 | < 0.01 |
| NCCCn1c2c(c3ccc([N+](=O)[O-])cc3c1=O)C(=O)c1cc(F)ccc1-2 | < 0.01 | < 0.01 | < 0.01 | 0.028 | 0.052 | < 0.01 | 0.081 | 0.034 |
| NCCCn1c2c(c3ccc([N+](=O)[O-])cc3c1=O)C(=O)c1cc(Cl)ccc1-2 | < 0.01 | < 0.01 | < 0.01 | < 0.01 | – | < 0.01 | – | < 0.01 |
| O=C1c2cc(F)ccc2-c2c1c1ccc([N+](=O)[O-])cc1c(=O)n2CCCBr | 2.29 | 2.29 | 7.24 | – | 46.8 | 3.39 | 37.2 | 27.5 |
| O=C1c2cc(Br)ccc2-c2c1c1ccc([N+](=O)[O-])cc1c(=O)n2CCCCl | 3.63 | – | 3.72 | 0.661 | 0.575 | 0.214 | 0.282 | 0.019 |
| COc1ccc2c(c1)C(=O)c1c-2n(CCCN)c(=O)c2cc(OC)c(OC)cc12 | < 0.01 | 0.427 | 0.054 | 0.115 | 0.389 | < 0.01 | 1.7 | 0.141 |
| CCc1ccc2c(c1)C(=O)c1c-2n(CCCN)c(=O)c2cc(OC)c(OC)cc12 | 1.82 | 1.82 | – | 1.62 | 1.51 | 1.62 | 2 | 1.74 |
| COc1cc2c3c(n(CCCN)c(=O)c2cc1OC)-c1ccc(F)cc1C3=O | 0.603 | 3.39 | 1.38 | 1.12 | 6.31 | 0.575 | 6.03 | 4.36 |
| COc1cc2c3c(n(CCCN)c(=O)c2cc1OC)-c1ccc(C#N)cc1C3=O | 3.98 | 17 | 15.9 | – | 19.1 | 12.3 | 18.6 | 16.6 |
| COc1cc2c3c(n(CCCN)c(=O)c2cc1OC)-c1ccc([N+](=O)[O-])cc1C3=O | 0.617 | 11.5 | 1.32 | 3.72 | 16.6 | 2.09 | 15.8 | 11.7 |
| COc1ccc2c(c1)C(=O)c1c-2n(CCCN=[N+]=[N-])c(=O)c2cc(OC)c(OC)cc12 | 11.5 | 20.9 | 27.5 | 56.2 | 49 | 26.3 | > 100 | 64.6 |
| COc1cc2c3c(n(CCCN)c(=O)c2cc1OC)-c1ccccc1C3=O | 0.151 | 2.88 | < 0.01 | 2.82 | 0.085 | 2.63 | 0.631 | 0.794 |
| COC(=O)c1ccc2c(c1)C(=O)c1c-2n(CCCN)c(=O)c2cc(OC)c(OC)cc12 | 3.72 | 17.4 | 16.6 | 15.8 | 16.6 | 17.8 | 18.2 | 15.1 |
| NCCCn1c2c(c3ccc([N+](=O)[O-])cc3c1=O)C(=O)c1cc(Br)ccc1-2 | 0.033 | < 0.01 | 0.048 | 0.011 | 0.295 | < 0.01 | 0.162 | < 0.01 |
| COC(=O)c1ccc2c(c1)C(=O)c1c-2n(CCCN=[N+]=[N-])c(=O)c2cc(OC)c(OC)cc12 | > 100 | > 100 | > 100 | > 100 | > 100 | > 100 | > 100 | > 100 |
| COc1cc2c3c(n(CCCN=[N+]=[N-])c(=O)c2cc1OC)-c1ccc(NC(C)=O)cc1C3=O | 50.1 | 50.1 | 50.1 | 50.1 | 50.1 | 50.1 | 50.1 | 50.1 |
| COc1cc2c3c(n(CCCBr)c(=O)c2cc1OC)-c1ccc(F)cc1C3=O | 4.17 | 3.89 | 5.75 | 3.55 | 24.5 | 4.36 | 43.7 | 15.5 |
| COc1ccc2c(c1)C(=O)c1c-2n(CCCN)c(=O)c2cc([N+](=O)[O-])ccc12 | < 0.01 | < 0.01 | < 0.01 | < 0.01 | – | – | – | < 0.01 |
| COc1cc2c3c(n(C)c(=O)c2cc1OC)-c1cc2c(cc1C3=O)OCO2 | 1.3 | 4.2 | 35 | – | – | 37 | 96 | 68 |
